This passage reports inhibition and IC50 results from patent US7109193B2, “Tricyclic diazepines tocolytic oxytocin receptor antagonists” (Wyeth, priority 2001, dated 2006).

The target of this experiment is T1, human oxytocin receptor (Homo sapiens, UniProt P30559).
T1 construct: host or cells: CHO cells (pcDNA3.1 vector)
T1 sequence (P30559 1-389): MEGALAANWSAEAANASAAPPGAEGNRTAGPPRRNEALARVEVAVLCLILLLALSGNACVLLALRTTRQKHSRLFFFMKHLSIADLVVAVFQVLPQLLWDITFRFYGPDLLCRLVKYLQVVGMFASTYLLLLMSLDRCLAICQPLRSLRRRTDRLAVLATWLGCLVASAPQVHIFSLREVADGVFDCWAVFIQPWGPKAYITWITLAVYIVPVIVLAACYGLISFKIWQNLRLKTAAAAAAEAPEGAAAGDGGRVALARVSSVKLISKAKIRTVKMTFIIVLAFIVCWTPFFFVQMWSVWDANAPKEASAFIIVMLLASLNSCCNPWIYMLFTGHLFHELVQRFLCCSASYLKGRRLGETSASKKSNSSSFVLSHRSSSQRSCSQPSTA
Description: Oxytocin binding in Chinese Hamster Ovary cell membranes expressing human oxytocin receptors. Conditions: CHO cell membranes, [3H]oxytocin; for inhibition at 0.1 µM: 100 nM, values without parentheses, read-out: OT % inhibition @ 100% nM; for IC50: values in parentheses, read-out: OT (IC50).

By inhibition is commonly meant the relative decrease from the control value, in per cent. One may read the IC50 as the concentration that gives 50% inhibition.

Counter-ions that a name gives are not always drawn.

As for `Cc1ccccc1-c1ccc(C(=O)N2Cc3ccc(C(=O)N(C)CCCN(C)C)n3Cc3ccccc32)cc1C` [Example 101, N-[3-(Dimethylamino)propyl]-10-[(2,2′-dimethyl[1,1′-biphenyl]-4-yl)carbonyl]-N-methyl-10,11-dihydro-5H-pyrrolo[2,1-c][1,4]benzodiazepine-3-carboxamide], the inhibition at 0.1 µM came out at 100%. On to `COc1ccccc1-c1ccc(C(=O)N2Cc3ccc(C(=O)N4CC[C@@H](N(C)C)C4)n3Cc3ccccc32)cc1C` [Example 272, [(3R)-3-(Dimethylamino)pyrrolidinyl]{10-[(2′-methoxy-2-methyl[1,1′-biphenyl]-4-yl)carbonyl]-10,11-dihydro-5H-pyrrolo[2,1-c][1,4]benzodiazepin-3-yl}methanone], for which the half-inhibitory concentration (IC50) came to 2.61 nM. On to `COc1ccccc1-c1ccc(C(=O)N2Cc3ccc(C(=O)N(C)CCN(C)C)n3Cc3ccccc32)cc1` [Example 90, N-[2-(Dimethylamino)ethyl]-10-[(2′-methoxy[1,1′-biphenyl]-4-yl)carbonyl]-N-methyl-10,11-dihydro-5H-pyrrolo[2,1-c][1,4]benzodiazepine-3-carboxamide], for which the inhibition at 0.1 µM came to 100%. On the same count and under the same terms, to `COc1cc(C(=O)N2Cc3ccc(C(=O)N(C)CCCN(C)C)n3Cc3ccccc32)ccc1-c1cccc2ccccc12` [Example 106, N-[3-(Dimethylamino)propyl]-10-[3-methoxy-4-(1-naphthyl)benzoyl]-N-methyl-10,11-dihydro-5H-pyrrolo[2,1-c][1,4]benzodiazepine-3-carboxamide] belongs 88%. In the case of `Cc1cc(C(=O)N2Cc3ccc(C(=O)N4CCNCC4)n3Cc3ccccc32)ccc1-c1ccccc1C(F)(F)F` [Example 7, 10,11-Dihydro-10-[[2-methyl-2′-trifluoromethyl-[1,1′-biphenyl]-4-yl]carbonyl]-3-(1-piperazinylcarbonyl)-5H-pyrrolo[2,1-c][1,4]benzodiazepine hydrochloride salt], the IC50 was found to be 11.4 nM. As for `Cc1ccccc1-c1ccc(C(=O)N2Cc3ccc(C(=O)N(C)CCN(C)C)n3Cc3ccccc32)cc1` [Example 91, N-[2-(Dimethylamino)ethyl]-N-methyl-10-[(2′-methyl[1,1′-biphenyl]-4-yl)carbonyl]-10,11-dihydro-5H-pyrrolo[2,1-c][1,4]benzodiazepine-3-carboxamide], the inhibition at 0.1 µM came out at 97%.

For `COc1cc(C(=O)N2Cc3ccc(C(=O)N(C)CCN(C)C)n3Cc3ccccc32)ccc1-c1ccccc1C` [Example 92, N-[2-(Dimethylamino)ethyl]-10-[(2-methoxy-2′-methyl[1,1′-biphenyl]-4-yl)carbonyl]-N-methyl-10,11-dihydro-5H-pyrrolo[2,1-c][1,4]benzodiazepine-3-carboxamide], the inhibition at 0.1 µM stood at 99%.

Turning to `CN(C)CCN(C)C(=O)c1ccc2n1Cc1ccccc1N(C(=O)c1ccc(-c3cccc4ccccc34)cc1Cl)C2` [Example 96, 10-[2-Chloro-4-(1-naphthyl)benzoyl]-N-[2-(dimethylamino)ethyl]-N-methyl-10,11-dihydro-5H-pyrrolo[2,1-c][1,4]benzodiazepine-3-carboxamide], the inhibition at 0.1 µM came to 54%.

As for `COc1cccc(-c2cc(OC)c(C(=O)N3Cc4ccc(C(=O)NCCCN(C)C)n4Cc4ccccc43)cc2Cl)c1` [Example 79, 10-[(6-Chloro-3,3′-dimethoxy[1,1′-biphenyl]-4-yl)carbonyl]-N-[3-(dimethylamino)propyl]-10,11-dihydro-5H-pyrrolo[2,1-c][1,4]benzodiazepine-3-carboxamide], the inhibition at 0.1 µM is 35%. With `COc1ccccc1-c1ccc(C(=O)N2Cc3ccc(C(=O)N(C)CCCN(C)C)n3Cc3ccccc32)cc1C` [Example 100, N-[3-(Dimethylamino)propyl]-10-[(2′-methoxy-2-methyl[1,1′-biphenyl]-4-yl)carbonyl]-N-methyl-10,11-dihydro-5H-pyrrolo[2,1-c][1,4]benzodiazepine-3-carboxamide], the inhibition at 0.1 µM was determined as 98%. Same read-out and setting: to `COc1cccc(-c2ccc(C(=O)N3Cc4ccc(C(=O)N(C)CCN(C)C)n4Cc4ccccc43)cc2C)c1` [Example 89, N-[2-(Dimethylamino)ethyl]-10-[(3′-methoxy-2-methyl[1,1′-biphenyl]-4-yl)carbonyl]-N-methyl-10,11-dihydro-5H-pyrrolo[2,1-c][1,4]benzodiazepine-3-carboxamide] belongs 97%. For the compound `COc1cc(-c2ccccc2C)c(Cl)cc1C(=O)N1Cc2ccc(C(=O)N3CC[C@@H](N(C)C)C3)n2Cc2ccccc21` [Example 273, {10-[(6-Chloro-3-methoxy-2′-methyl[1,1′-biphenyl]-4-yl)carbonyl]-10,11-dihydro-5H-pyrrolo[2,1-c][1,4]benzodiazepin-3-yl}[(3R)-3-(dimethylamino)pyrrolidinyl]methanone], the 50% inhibitory concentration (IC50) was determined as 4.26 nM.

Take `COc1ccccc1-c1ccc(C(=O)N2Cc3ccc(C(=O)N(C)CCCN(C)C)n3Cc3ccccc32)cc1` [Example 103, N-[3-(Dimethylamino)propyl]-10-[(2′-methoxy[1,1′-biphenyl]-4-yl)carbonyl]-N-methyl-10,11-dihydro-5H-pyrrolo[2,1-c][1,4]benzodiazepine-3-carboxamide]: the inhibition at 0.1 µM amounted to 98%. Regarding `Cc1cc(C(=O)N2Cc3ccc(C(=O)N4CCCN(C)CC4)n3Cc3ccccc32)ccc1-c1ccccc1C(F)(F)F` [Example 59, (4-Methyl-1,4-diazepan-1-yl)(10-{[2-methyl-2′-(trifluoromethyl)[1,1′-biphenyl]-4-yl]carbonyl}-10,11-dihydro-5H-pyrrolo[2,1-c][1,4]benzodiazepin-3-yl)methanone], the half-maximal inhibitory concentration (IC50) turned out to be 16.4 nM. Still for that read-out and setting: the value for `COc1ccccc1-c1ccc(C(=O)N2Cc3ccc(C(=O)N4CCCN(C)CC4)n3Cc3ccccc32)cc1` [Example 61, {10-[(2′-Methoxy[1,1′-biphenyl]-4-yl)carbonyl]-10,11-dihydro-5H-pyrrolo[2,1-c][1,4]benzodiazepin-3-yl}(4-methyl-1,4-diazepan-1-yl)methanone] was 4.5 nM.

Turning to `COc1cc(-c2ccccc2C)c(Cl)cc1C(=O)N1Cc2ccc(C(=O)N(C)CCN(C)C)n2Cc2ccccc21` [Example 86, 10-[(6-Chloro-3-methoxy-2′-methyl[1,1′-biphenyl]-4-yl)carbonyl]-N-[2-(dimethylamino)ethyl]-N-methyl-10,11-dihydro-5H-pyrrolo[2,1-c][1,4]benzodiazepine-3-carboxamide], the half-inhibitory concentration (IC50) turned out to be 2.31 nM. On to `COc1cccc(-c2ccc(C(=O)N3Cc4ccc(C(=O)NCCCN(C)C)n4Cc4ccccc43)cc2OC)c1` [Example 82, 10-[(2,3′-Dimethoxy[1,1′-biphenyl]-4-yl)carbonyl]-N-[3-(dimethylamino)propyl]-10,11-dihydro-5H-pyrrolo[2,1-c][1,4]benzodiazepine-3-carboxamide], for which the inhibition at 0.1 µM came out at 50%. `COc1ccccc1-c1ccc(C(=O)N2Cc3ccc(C(=O)N4CCN(CCN5CCOCC5)CC4)n3Cc3ccccc32)cc1` [Example 207, {10-[(2′-Methoxy[1,1′-biphenyl]-4-yl)carbonyl]-10,11-dihydro-5H-pyrrolo[2,1-c][1,4]benzodiazepin-3-yl}{4-[2-(4-morpholinyl)ethyl]-1-piperazinyl}methanone]: the IC50 is 9.5 nM. Consider `COc1cc(-c2ccccc2C)c(Cl)cc1C(=O)N1Cc2ccc(C(=O)N3CCN(C)CC3)n2Cc2ccccc21` [Example 47, {10-[(6-Chloro-3-methoxy-2′-methyl[1,1′-biphenyl]-4-yl)carbonyl]-10,11-dihydro-5H-pyrrolo[2,1-c][1,4]benzodiazepin-3-yl}(4-methyl-1-piperazinyl)methanone], for which the IC50 stood at 6.61 nM.

For `Cc1ccccc1-c1ccc(C(=O)N2Cc3ccc(C(=O)N(C)CCCN(C)C)n3Cc3ccccc32)cc1` [Example 104, N-[3-(Dimethylamino)propyl]-N-methyl-10-[(2′-methyl[1,1′-biphenyl]-4-yl)carbonyl]-10,11-dihydro-5H-pyrrolo[2,1-c][1,4]benzodiazepine-3-carboxamide], the inhibition at 0.1 µM is 96%.

Turning to `COc1ccccc1-c1ccc(C(=O)N2Cc3ccc(C(=O)N(C)CCN(C)C)n3Cc3ccccc32)cc1C` [Example 88, N-[2-(Dimethylamino)ethyl]-10-[(2′-methoxy-2-methyl[1,1′-biphenyl]-4-yl)carbonyl]-N-methyl-10,11-dihydro-5H-pyrrolo[2,1-c][1,4]benzodiazepine-3-carboxamide], the inhibition at 0.1 µM stood at 98%. Still for that read-out and setting: to `COc1cccc(-c2ccc(C(=O)N3Cc4ccc(C(=O)N(C)CCCN(C)C)n4Cc4ccccc43)cc2C)c1` [Example 102, N-[3-(Dimethylamino)propyl]-10-[(3′-methoxy-2-methyl[1,1′-biphenyl]-4-yl)carbonyl]-N-methyl-10,11-dihydro-5H-pyrrolo[2,1-c][1,4]benzodiazepine-3-carboxamide] belongs 95%. With `Cc1cc(C(=O)N2Cc3ccc(C(=O)N4CCC[C@H]4CN4CCCC4)n3Cc3ccccc32)ccc1-c1ccccc1C(F)(F)F` [Example 258, (10-{[2-Methyl-2′-(trifluoromethyl)[1,1′-biphenyl]-4-yl]carbonyl}-10,11-dihydro-5H-pyrrolo[2,1-c][1,4]benzodiazepin-3-yl)[(2S)-2-(1-pyrrolidinylmethyl)pyrrolidinyl]methanone], the half-inhibitory concentration (IC50) was determined as 2.85 nM. Still for that read-out and setting: to `COc1ccccc1-c1ccc(C(=O)N2Cc3ccc(C(=O)N4CCN(CCN5CCOCC5)CC4)n3Cc3ccccc32)cc1C` [Example 206, {10-[(2′-Methoxy-2-methyl[1,1′-biphenyl]-4-yl)carbonyl]-10,11-dihydro-5H-pyrrolo[2,1-c][1,4]benzodiazepin-3-yl}{4-[2-(4-morpholinyl)ethyl]-1-piperazinyl}methanone] belongs 3.66 nM.
